Blank lines part the entries; values can stand above or below the compound they belong to.
Assays:
EC d6 [1] = test: EdU incorporation (S-phase activity); format: cell-based, mouse; conditions: EC d6 24 h; Dox up to 0.1 µM
EC d4 [2] = test: Alkaline comet assay; conditions: EC d4 48 h
EC d4 [3] = test: Mitochondrial membrane potential (TMRM-MitoTracker Green); format: cell-based, mouse; conditions: EC d4 treated 48 h, analysed in EC d6; Dox 0.05 µM
Protocol: Mitochondrial membrane potential (ΔΨm) was analyzed by live-cell imaging using TMRM-MitoTracker Green co-staining. Cells were seeded and differentiated on Poly-D-Lysine-fibronectine-coated live-imaging dishes. For staining, cells were incubated with 200nM MitoTracker Green (Invitrogen) and 50 nM TMRM (Invitrogen) in DMEM (30 min, 37 °C, 5% CO2). After washing with PBS, live-cell microscopy was performed using a spinning disc confocal microscope (PerkinElmer) equipped with a 60x oil-immersion objective (N.A = 1.49) and a Hamamatsu C9100 camera (1000 × 1000 pixel) (excitation (MitoTracker Green): 488 nm, excitation (TMRM): 561 nm). The cells were kept at 37 °C in OptiMEM supplemented with 10 mM HEPES during imaging. The images were obtained at emission wavelength of 527 nm (W55) and 615 nm (W70) for 488 nm and 561 nm excitation, respectively.

EC d6 [4] = test: DNA fiber spreading assay; format: cell-based, mouse; conditions: EC d6 24 h; HU: 5 mM, 1 h
Protocol: (§1) To analyze DNA replication fork progression, the DNA fiber spreading assay was performed. Briefly, cells were pulse-labeled with 20 µM CldU (20 min, 37 °C, 5% C0_2) and immediately afterwards with 200 µM IdU (20 min, 37 °C, 5% C02). Cell suspension was applied onto glass slides followed by cell lysis (0.5% SDS, 200 mM Tris–HCl, 50 mM EDTA). After incubation (6 min, RT), slides were tilted upwards to stretch the fibers, dried 6 min lying horizontally flat and fixed (5 min, RT) in methanol: acetic acid (3:1). After drying (7 min, lying horizontally flat) slides were stored overnight in 70% ethanol (4 °C). The next day samples were incubated in 100% methanol (5 min, RT) followed by denaturation in 2.5 M HCl (1 h, RT) and blocking (5% BSA in PBS, 1 h, 37 °C). DNA Fibers were stained with rat anti-BrdU (1:40) for CldU detection and mouse anti-BrdU (1:70) for IdU detection (in 0.5% BSA/PBS; 1 h, RT). After washing (0.05% Tween 20 in PBS and PBS) incubation with secondary antibodies anti-rat 488 (1:400) and anti-mouse 555 (1:250) was performed (1 h, RT, 0.5% BSA in PBS). Following washing with 0.05% Tween 20 in PBS and PBS, the slides were mounted with Fluoroshield (Sigma [Steinheim, Germany]). DNA fibers were analyzed microscopically (Olympus BX43 fluorescence microscope [40 objective]). The length of CldU (green) and IdU (red) tract was measured using ImageJ software, analyzing 200 fibers per experimental condition.

mESC [5] = test: DNA fiber spreading assay; format: cell-based, mouse; conditions: mESC 24 h; HU: 5 mM, 1 h
Protocol: as §1

EC d6 [6] = test: Nuclear γH2AX / 53BP1 foci (DSB); conditions: EC d6 24 h, equitoxic concentrations
EC d4 [7] = test: Doxorubicin import/export (flow cytometry); format: cell-based, mouse; conditions: EC d4, 2 h pulse then 6 h post-incubation
Protocol: Import and export of Dox were examined via flow cytometry. […] Trypsinized cells were washed with PBS and pelleted by centrifugation (200 x g, 5 min, 4 °C). After additional washing, cells were resuspended in PBS.

EC d6 [8] = test: Alkaline comet assay; conditions: EC d6 24 h
[9] = test system: primary murine cardiac endothelial cells; test: RT-qPCR mRNA expression; format: cell-based, mouse
Protocol: Total RNA was purified using the RNeasy Mini Kit (Qiagen, Hilden, Germany). Reverse transcriptase (RT) reaction was performed with the HighCapacity cDNA Reverse Transcription Kit (Applied Biosystems, Darmstadt, Germany) using 900–2000 ng of RNA. Quantitative RT-qPCR analysis was performed using following conditions: (1) 95 °C–10 min; (2) 45 amplification cycles with 95 °C–15 s, 55 °C–15 s, and 72 °C–17 s; (3) 95 °C–1 min, 55 °C–1 min, 65 °C–5 s. If not stated otherwise, analyses were performed in technical triplicates using pooled samples from two independent experiments (each performed with biological duplicates) by use of a CFX96 cycler (BioRad) and the SensiMix SYBR Kit (Bioline, London, UK). The primers used for mRNA expression analyses are listed in Supplementary Table 1. To ensure the specificity of the amplification product, melting curves were recorded at the end of the run. mRNA expression levels were normalized to β-Actin and Gapdh. Relative mRNA expression in mESC or corresponding untreated controls was set to 1.0. Only changes in gene expression of ≤ 0.5- and ≥ 2-fold were considered as biologically relevant. Fold-changes in gene expression are summarized in Supplementary Table 2.

mESC [10] = test: Alkaline comet assay; conditions: mESC 24 h
EC d4 [11] = test: DNA fiber spreading assay; format: cell-based, mouse; conditions: EC d4 48 h; HU: 5 mM, 1 h
Protocol: as §1

Dox efflux capacity as compared to the other differentiation stages (EC d4 [7]): enhanced export activity
Compound: COc1cccc2c1C(=O)c1c(O)c3c(c(O)c1C2=O)C[C@@](O)(C(=O)CO)C[C@@H]3O[C@H]1C[C@H](N)[C@H](O)[C@H](C)O1 [Dox, doxorubicin]
number of EdU-positive cells (EC d6 [1]): remained unaffected | steady-state level of SSB (alkaline comet assay) (EC d4 [2]): no or only a minor increase | mitochondrial membrane potential (EC d4 [3]): strongest drop in mitochondrial membrane potential | replication fork progression (EC d6 [4]): did not influence fork speed | replication fork progression (mESC [5]): accelerated fork progression | DSB formation (γH2AX / 53BP1 foci) (EC d6 [6]): significant increase | steady-state level of SSB (alkaline comet assay) (EC d6 [8]): no or only a minor increase | Ccn1a mRNA ([9]; 1 µM, 24 h, Fig 7E): 0.52 Fold of untreated control | Ccnd2 mRNA ([9]; 1 µM, 24 h, Fig 7E): 2.92 Fold of untreated control | Cdkn1a mRNA ([9]; 1 µM, 24 h, Fig 7E): 12.45 Fold of untreated control | Cdkn2a mRNA ([9]; 1 µM, 24 h, Fig 7E): 2.56 Fold of untreated control | Cxc1 mRNA ([9]; 1 µM, 24 h, Fig 7E): 10.16 Fold of untreated control | E2f1 mRNA ([9]; 1 µM, 24 h, Fig 7E): 0.54 Fold of untreated control | Glb1 mRNA ([9]; 1 µM, 24 h, Fig 7E): 2.10 Fold of untreated control | Il6 mRNA ([9]; 1 µM, 24 h, Fig 7E): 16.90 Fold of untreated control | Il8 mRNA ([9]; 1 µM, 24 h, Fig 7E): 2.54 Fold of untreated control | Mmp3 mRNA ([9]; 1 µM, 24 h, Fig 7E): 1.42 Fold of untreated control | Mybl2 mRNA ([9]; 1 µM, 24 h, Fig 7E): 0.053 Fold of untreated control | Tp53 mRNA ([9]; 1 µM, 24 h, Fig 7E): 1.66 Fold of untreated control | upregulation of Il6, Cxc1 and Cdkn1a mRNA ([9]; Dox 24 h): about 10 fold | steady-state level of SSB (alkaline comet assay) (mESC [10]): significant increase

Compound: Nc1ccccc1NC(=O)c1ccc(CNC(=O)OCc2cccnc2)cc1 [EST, entinostat]
replication fork progression (EC d6 [4]): opposite effects | replication fork progression (mESC [5]): promoted new DNA strand synthesis | replication fork progression (EC d4 [11]): opposite effects

From paper PMC13308190, “Endothelial progenitor cell susceptibility to DNA damaging and DDR-modulating compounds determines endothelial differentiation accuracy” (Stem Cell Research & Therapy, 2026)
